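Where inhibition never reached the appropriate level, the endpoint shown equals the highest concentration tested. Otherwise, values were interpolated linearly from a five-concentration, 48-hour dose response in 96-well plates. GI50: concentration for 50% inhibition of growth. TGI is the concentration that stops growth completely.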
Key:
Test in all cases: NCI anticancer screen, dose series, 48 h
MDA-MB-231 breast = system: MDA-MB-231 breast
T-47D breast = system: T-47D breast
NCI-H226 lung = system: NCI-H226 lung
HS 578T breast = system: HS 578T breast
HL-60(TB) leukemia = system: HL-60(TB) leukemia
SK-MEL-2 melanoma = system: SK-MEL-2 melanoma
HOP-92 NSCLC = system: HOP-92 NSCLC
OVCAR-3 ovarian = system: OVCAR-3 ovarian
RPMI-8226 leukemia = system: RPMI-8226 leukemia
OVCAR-4 ovarian = system: OVCAR-4 ovarian
KM12 colon = system: KM12 colon
SF-268 CNS = system: SF-268 CNS
SK-OV-3 ovarian = system: SK-OV-3 ovarian
UACC-257 melanoma = system: UACC-257 melanoma
786-0 renal = system: 786-0 renal
UO-31 renal = system: UO-31 renal
NCI-H23 lung = system: NCI-H23 lung
PC-3 prostate = system: PC-3 prostate
A549 NSCLC = system: A549 NSCLC
DU-145 prostate = system: DU-145 prostate
LOX IMVI melanoma = system: LOX IMVI melanoma
SNB-75 CNS = system: SNB-75 CNS
COLO 205 colon = system: COLO 205 colon
MCF7 breast = system: MCF7 breast
SN12C renal = system: SN12C renal
U251 CNS = system: U251 CNS
HOP-62 NSCLC = system: HOP-62 NSCLC
HT29 colon = system: HT29 colon
NCI-H460 lung = system: NCI-H460 lung
HCT-116 colon = system: HCT-116 colon
SK-MEL-5 melanoma = system: SK-MEL-5 melanoma
SR leukemia = system: SR leukemia
SF-295 CNS = system: SF-295 CNS
ACHN renal = system: ACHN renal
NCI/ADR-RES ovarian = system: NCI/ADR-RES ovarian
RXF 393 renal = system: RXF 393 renal
CCRF-CEM leukemia = system: CCRF-CEM leukemia
MDA-MB-435 = system: MDA-MB-435
HCC-2998 colon = system: HCC-2998 colon
BT-549 breast = system: BT-549 breast
MOLT-4 leukemia = system: MOLT-4 leukemia
IGROV1 ovarian = system: IGROV1 ovarian
SK-MEL-28 melanoma = system: SK-MEL-28 melanoma
CAKI-1 renal = system: CAKI-1 renal
OVCAR-5 ovarian = system: OVCAR-5 ovarian
HCT-15 colon = system: HCT-15 colon
EKVX NSCLC = system: EKVX NSCLC
K-562 leukemia = system: K-562 leukemia
A498 renal = system: A498 renal
NCI-H522 lung = system: NCI-H522 lung
SF-539 CNS = system: SF-539 CNS
UACC-62 melanoma = system: UACC-62 melanoma
M14 melanoma = system: M14 melanoma
SW-620 colon = system: SW-620 colon
OVCAR-8 ovarian = system: OVCAR-8 ovarian
TK-10 renal = system: TK-10 renal
SNB-19 CNS = system: SNB-19 CNS

With `Cc1ccc(C2C3Cc4ccccc4C3=NN2c2ccc(S(=O)(=O)NC(=O)NC3CCCCC3)cc2)cc1` (centres undefined) as the compound, how does the GI50 (MDA-MB-231 breast) read?
Its GI50 is 28.2 µM.

What about the TGI (MDA-MB-231 breast) of the same compound?
The TGI was over 100 µM.

And the GI50 (T-47D breast)?
Its GI50 is 32.5 µM.

And the TGI (T-47D breast)?
The TGI was over 100 µM.

And the GI50 (NCI-H226 lung)?
The GI50 was 21.2 µM.

And the TGI (NCI-H226 lung)?
Its TGI is 54.6 µM.

What about the GI50 (HS 578T breast) of the same compound?
The GI50 was 23.6 µM.

And the TGI (HS 578T breast)?
The TGI was 62.7 µM.

What about the GI50 (HL-60(TB) leukemia) of the same compound?
The GI50 was 22.9 µM.

And the TGI (HL-60(TB) leukemia)?
The TGI was 59.7 µM.

What about the GI50 (SK-MEL-2 melanoma) of the same compound?
Its GI50 is 18.6 µM.

What about the TGI (SK-MEL-2 melanoma) of the same compound?
Its TGI is 38.6 µM.

What about the GI50 (HOP-92 NSCLC) of the same compound?
The GI50 was 11.6 µM.

And the TGI (HOP-92 NSCLC)?
The TGI was 27.6 µM.

And the GI50 (OVCAR-3 ovarian)?
Its GI50 is 15 µM.

What about the TGI (OVCAR-3 ovarian) of the same compound?
The TGI was 37.1 µM.

What about the GI50 (RPMI-8226 leukemia) of the same compound?
Its GI50 is 5.44 µM.

And the TGI (RPMI-8226 leukemia)?
Its TGI is 40.8 µM.

And the GI50 (OVCAR-4 ovarian)?
Its GI50 is 16.6 µM.

And the TGI (OVCAR-4 ovarian)?
The TGI was 39.2 µM.

And the GI50 (KM12 colon)?
Its GI50 is 11.3 µM.

And the TGI (KM12 colon)?
The TGI was 39.1 µM.

What about the GI50 (SF-268 CNS) of the same compound?
The GI50 was 25.3 µM.

What about the TGI (SF-268 CNS) of the same compound?
Its TGI is over 100 µM.

What about the GI50 (SK-OV-3 ovarian) of the same compound?
Its GI50 is 20.4 µM.

What about the TGI (SK-OV-3 ovarian) of the same compound?
Its TGI is 61.3 µM.

What about the GI50 (UACC-257 melanoma) of the same compound?
Its GI50 is 20.2 µM.

And the TGI (UACC-257 melanoma)?
Its TGI is 39.7 µM.

What about the GI50 (786-0 renal) of the same compound?
Its GI50 is 28.6 µM.

What about the TGI (786-0 renal) of the same compound?
Its TGI is over 100 µM.

And the GI50 (UO-31 renal)?
The GI50 was 11 µM.

What about the TGI (UO-31 renal) of the same compound?
Its TGI is 26.1 µM.

What about the GI50 (NCI-H23 lung) of the same compound?
The GI50 was 15.2 µM.

What about the TGI (NCI-H23 lung) of the same compound?
The TGI was 37.1 µM.

What about the GI50 (PC-3 prostate) of the same compound?
Its GI50 is 9.66 µM.

And the TGI (PC-3 prostate)?
Its TGI is 26.2 µM.

What about the GI50 (A549 NSCLC) of the same compound?
Its GI50 is 12 µM.

And the TGI (A549 NSCLC)?
Its TGI is 27.5 µM.

And the GI50 (DU-145 prostate)?
The GI50 was 23.1 µM.

What about the TGI (DU-145 prostate) of the same compound?
Its TGI is 78.9 µM.

What about the GI50 (LOX IMVI melanoma) of the same compound?
The GI50 was 17.8 µM.

What about the TGI (LOX IMVI melanoma) of the same compound?
The TGI was 44.2 µM.

And the GI50 (SNB-75 CNS)?
Its GI50 is 44 µM.

And the TGI (SNB-75 CNS)?
The TGI was over 100 µM.

What about the GI50 (COLO 205 colon) of the same compound?
The GI50 was 14.7 µM.

And the TGI (COLO 205 colon)?
The TGI was 33.1 µM.

What about the GI50 (MCF7 breast) of the same compound?
Its GI50 is 13.5 µM.

And the TGI (MCF7 breast)?
Its TGI is over 100 µM.

What about the GI50 (SN12C renal) of the same compound?
Its GI50 is 16.6 µM.

And the TGI (SN12C renal)?
Its TGI is 33.1 µM.

And the GI50 (U251 CNS)?
Its GI50 is 13.2 µM.

And the TGI (U251 CNS)?
Its TGI is 30.4 µM.

And the GI50 (HOP-62 NSCLC)?
The GI50 was 45.7 µM.

And the TGI (HOP-62 NSCLC)?
The TGI was over 100 µM.

What about the GI50 (HT29 colon) of the same compound?
The GI50 was 24.5 µM.

What about the TGI (HT29 colon) of the same compound?
The TGI was over 100 µM.

And the GI50 (NCI-H460 lung)?
Its GI50 is 21.6 µM.

What about the TGI (NCI-H460 lung) of the same compound?
Its TGI is over 100 µM.

And the GI50 (HCT-116 colon)?
The GI50 was 15.5 µM.

What about the TGI (HCT-116 colon) of the same compound?
The TGI was over 100 µM.

And the GI50 (SK-MEL-5 melanoma)?
The GI50 was 14.5 µM.

What about the TGI (SK-MEL-5 melanoma) of the same compound?
Its TGI is 30.3 µM.

What about the GI50 (SR leukemia) of the same compound?
Its GI50 is 6.25 µM.

And the TGI (SR leukemia)?
Its TGI is 32.1 µM.

What about the GI50 (SF-295 CNS) of the same compound?
Its GI50 is 17.9 µM.

What about the TGI (SF-295 CNS) of the same compound?
Its TGI is 54.2 µM.

What about the GI50 (ACHN renal) of the same compound?
Its GI50 is 14.4 µM.

And the TGI (ACHN renal)?
The TGI was 28.5 µM.

And the GI50 (NCI/ADR-RES ovarian)?
The GI50 was 13.4 µM.

And the TGI (NCI/ADR-RES ovarian)?
Its TGI is 35.1 µM.

And the GI50 (RXF 393 renal)?
Its GI50 is 18.7 µM.

And the TGI (RXF 393 renal)?
The TGI was 54.5 µM.

And the GI50 (CCRF-CEM leukemia)?
Its GI50 is 8.33 µM.

What about the TGI (CCRF-CEM leukemia) of the same compound?
The TGI was 76.4 µM.

And the GI50 (MDA-MB-435)?
The GI50 was 14.6 µM.

And the TGI (MDA-MB-435)?
The TGI was 41.3 µM.

And the GI50 (HCC-2998 colon)?
The GI50 was 12.6 µM.

What about the TGI (HCC-2998 colon) of the same compound?
Its TGI is 28.6 µM.

What about the GI50 (BT-549 breast) of the same compound?
Its GI50 is 18 µM.

And the TGI (BT-549 breast)?
Its TGI is 42.9 µM.

And the GI50 (MOLT-4 leukemia)?
Its GI50 is 7.69 µM.

And the TGI (MOLT-4 leukemia)?
Its TGI is over 100 µM.

And the GI50 (IGROV1 ovarian)?
Its GI50 is 5.75 µM.

And the TGI (IGROV1 ovarian)?
The TGI was 24.5 µM.

And the GI50 (SK-MEL-28 melanoma)?
Its GI50 is 19.9 µM.

What about the TGI (SK-MEL-28 melanoma) of the same compound?
Its TGI is 38 µM.

What about the GI50 (CAKI-1 renal) of the same compound?
The GI50 was 16 µM.

And the TGI (CAKI-1 renal)?
The TGI was 42.1 µM.

What about the GI50 (OVCAR-5 ovarian) of the same compound?
Its GI50 is 27.3 µM.

And the TGI (OVCAR-5 ovarian)?
Its TGI is 55.7 µM.

What about the GI50 (HCT-15 colon) of the same compound?
Its GI50 is 19.4 µM.

What about the TGI (HCT-15 colon) of the same compound?
Its TGI is 76.7 µM.

What about the GI50 (EKVX NSCLC) of the same compound?
Its GI50 is 20.2 µM.

And the TGI (EKVX NSCLC)?
The TGI was 67.1 µM.

And the GI50 (K-562 leukemia)?
Its GI50 is 11.5 µM.

And the TGI (K-562 leukemia)?
The TGI was 52.3 µM.

What about the GI50 (A498 renal) of the same compound?
The GI50 was 22.4 µM.

And the TGI (A498 renal)?
The TGI was 39.6 µM.

What about the GI50 (NCI-H522 lung) of the same compound?
The GI50 was 5.92 µM.

And the TGI (NCI-H522 lung)?
Its TGI is 23.5 µM.

And the GI50 (SF-539 CNS)?
Its GI50 is 20.2 µM.

And the TGI (SF-539 CNS)?
Its TGI is 40.7 µM.

What about the GI50 (UACC-62 melanoma) of the same compound?
Its GI50 is 12.7 µM.

What about the TGI (UACC-62 melanoma) of the same compound?
The TGI was 28.6 µM.

And the GI50 (M14 melanoma)?
Its GI50 is 33.5 µM.

What about the TGI (M14 melanoma) of the same compound?
The TGI was over 100 µM.

What about the GI50 (SW-620 colon) of the same compound?
Its GI50 is 16.6 µM.

And the TGI (SW-620 colon)?
Its TGI is 40.1 µM.

And the GI50 (OVCAR-8 ovarian)?
Its GI50 is 17.4 µM.

What about the TGI (OVCAR-8 ovarian) of the same compound?
Its TGI is 43.6 µM.

And the GI50 (TK-10 renal)?
Its GI50 is 11.7 µM.

What about the TGI (TK-10 renal) of the same compound?
The TGI was 28.4 µM.

And the GI50 (SNB-19 CNS)?
The GI50 was 21.3 µM.

What about the TGI (SNB-19 CNS) of the same compound?
The TGI was 64 µM.

Source: PubChem BioAssay (NCI)
